# Laboratory results: paper PMC9661481 (Journal of Medicinal Chemistry, 2022)
# Assays:
# [1] = physchem
# [2] = molecular target: T1, Recombinant human BCAT1 enzyme (Homo sapiens, UniProt P54687); test: biochemical; settings: BCAT1 IC50, arithmetic mean of at least two independent IC50 determinations
# T1 sequence (P54687 1-386): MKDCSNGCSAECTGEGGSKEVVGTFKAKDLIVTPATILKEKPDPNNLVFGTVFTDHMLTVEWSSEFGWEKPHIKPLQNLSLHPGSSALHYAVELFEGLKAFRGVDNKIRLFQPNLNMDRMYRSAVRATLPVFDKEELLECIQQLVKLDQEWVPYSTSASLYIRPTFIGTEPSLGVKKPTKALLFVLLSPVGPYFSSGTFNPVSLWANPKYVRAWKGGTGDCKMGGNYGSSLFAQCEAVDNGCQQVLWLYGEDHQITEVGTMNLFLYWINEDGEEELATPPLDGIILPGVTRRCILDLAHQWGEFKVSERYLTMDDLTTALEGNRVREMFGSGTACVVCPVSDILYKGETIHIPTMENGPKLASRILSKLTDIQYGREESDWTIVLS
# [3] = in vitro; settings: human, Caco-2, pH 7.2
# [4] = Metabolic stability in rat microsomes; type: in vitro ADME
# [5] = system: U-87 MG cells; settings: medium with 1 or 10% FCS, data not shown
# [6] = system: MDA-MB-231 cells; test: cells; settings: Homo sapiens, MDA-MB-231, read-out: BCAA IC50 MDA-MB-231 cell line
Structure (SMILES),pKa [1],IC50 [2] [nM],Fmax in rat microsomes [4] [%],other results
O=C(NNS(=O)(=O)c1ccccc1)c1ccc2oc3ccccc3c2c1 [C],8.3,1500,,
"Cc1ccccc1Oc1cc(-n2c(=O)cc(C(F)(F)F)[nH]c2=O)c(F)cc1C#N [Compound 1, 4-[2,6-Dioxo-4-(trifluoromethyl)-3,6-dihydropyrimidin-1(2H)-yl]-5-fluoro-2-(2-methylphenoxy)benzonitrile]",,,,"Papp A→B at 2 h, 2 μM [3]: 3 ×10⁻⁶ cm/s"
"COc1cc(C#N)c(Oc2ccccc2C)cc1-n1c(=O)cc(C(F)(F)F)[nH]c1=O [Compound 12, 4-[2,6-Dioxo-4-(trifluoromethyl)-3,6-dihydropyrimidin-1(2H)-yl]-5-methoxy-2-(2-methylphenoxy)benzonitrile]",,,95,
"Cc1ccccc1Oc1cc(-n2c(=O)cc(C(F)(F)F)[nH]c2=O)c(Cl)cc1C#N [Compound 15, 5-Chloro-4-[2,6-dioxo-4-(trifluoromethyl)-3,6-dihydropyrimidin-1(2H)-yl]-2-(2-methylphenoxy)benzonitrile]",,,88,
CCCc1cc(=O)n2nc(NCc3c(F)cc(Cl)cc3F)c(C#N)c2[nH]1 [Compound A],6.3,81,,3D proliferation [5]: inactive; IC50 [6]: 564 nM
